This is an account of results in patent US20190151341A1, “APPLICATION OF TENVERMECTIN FOR PREVENTING AND TREATING PARASITE INFECTION” (ZHEJIANG HISUN PHARMACEUTICAL CO., LTD., priority 2016, published 2019).

Data set [1] relates to allogynogenetic crucian carp. Put plainly: Toxicity to allogynogenetic crucian carp, semi-static method, 96 hours. The data set is classed as in vivo. The text has this:
Test fish and water: allogynogenetic crucian carp was purchased from Taowang Farm in Jiaojiang District, Taizhou City, with a body length of (9.60±0.52) cm and a body weight of (28.22±3.44) g. The healthy and vigorous fish with the same size were selected and temporarily raised in an indoor aquarium. They were domesticated for 7 days indoors before the test. The natural mortality rate was zero.
99.4% Tenvermectin A (the mass content of tenvermectin B was 0.02%) (Zhejiang Hisun Pharmaceutical Co., Ltd.);
Tenvermectin (the mass ratio of tenvermectin A/tenvermectin B was 95/5) (Zhejiang Hisun Pharmaceutical Co., Ltd.);
Tenvermectin (the mass ratio of tenvermectin A/tenvermectin B was 90/10) (Zhejiang Hisun Pharmaceutical Co., Ltd.);
Tenvermectin (the mass ratio of tenvermectin A/tenvermectin B was 85/15) (Zhejiang Hisun Pharmaceutical Co., Ltd.);
99.1% Tenvermectin B (the mass content of tenvermectin A was 0.51%) (Zhejiang Hisun Pharmaceutical Co., Ltd.);
92% Avermectin (Zhejiang Qianjiang Biochemical Co., Ltd.);
96% Ivermectin (Zhejiang Hisun Pharmaceutical Co., Ltd.);
90% Methylamino avermectin benzoate (Emamectin benzoate) (Zhejiang Shenghua Biok Biotechnology Co., Ltd.).
Method: semi-static method. […]

For data set [2], the system named is zebrafish. As to the kind of experiment: Toxicity to zebrafish, semi-static method, 96 hours. The settings on record: 8 h. As for the experimental part: Test agents: avermectin, milbemycin, ivermectin, tenvermectin A and tenvermectin B were all from Zhejiang Hisun Pharmaceutical Co., Ltd. The samples were formulated into 50 mg/ml mother liquors with DMF.
Test fish and water: zebrafish (Brachydanio rerio) was purchased from Zhejiang Academy of Agricultural Sciences, with the same size, average body length of 2-3 cm and average body weight of 0.3 g. The zebrafish was domesticated for 7 days indoors before the test. […] Feeding was stopped 1 day before the test and the fish were not fed during the test. The test water was tap water with residual chlorine removed by exposure to the sun for more than 24 hours, and the pH thereof was 6.8.
Test methods: semi-static method. Three level differences were provided for each sample: 0.5 ppm, 1.0 ppm and 1.5 ppm, and three parallel groups were provided for each level difference, 10 zebrafish were raised for each group, and blank controls (one group without agents and one group with only solvent) were provided. The corresponding volume of mother liquor was taken according to the concentration as required for each sample, and the volume of each sample was adjusted to 150 μl with DMF, and then each sample was added to the test group (containing 1.6 L of water). The room temperature was controlled at 22±2° C. for 96 hours, and the water was changed every 24 hours and the samples were re-added. The fish mortality rate was recorded for the first 8 hours and at 24, 48, 72 and 96 hours, and the dead fish were removed in time.

Data set [3] has as its system swine Haematopinus. As to the kind of experiment: Killing effect on swine Haematopinus on the body surface. The settings on record: pigs, 1% injection 0.2 mg/kg bw s.c., until the 7th day and in the following 3 weeks. It is filed as in vivo. The source says: (§1) Test agents: 1% ivermectin injection, 1% tenvermectin A injection, and 1% tenvermectin B injection as obtained in Example 1.
(§2) Test animals and grouping: pigs cultured in the same farm were selected, and 40 pigs naturally infected with nematodes in the digestive tract were selected for testing through fecal examination. The average weight of the test pigs was 30-50 kg. Forty pigs were randomly divided into 4 groups, 10 for each group. The first group was the ivermectin control group, the second group was the tenvermectin A group, and the third group was the tenvermectin B group. All the medicated groups were injected subcutaneously in the neck according to 0.2 mg/kg·bw. The forth group was a blank group and was not administered.
(§3) 1) The feces of the pigs in each group were collected and examined one by one a day before administration, and worm eggs were counted by the McMaster's method. The number of eggs per gram of feces (EPG) was counted and the condition of Haematopinus on the body surface was observed.
(§4) 2) 1, 2, 3 and 4 weeks after administration, the feces of the pigs in each group were examined by the McMaster's method, and the EPG was counted and the changes of Haematopinus on the body surface were observed.
4) The killing effects of swine Haematopinus of the agents were assessed according to the survival of swine Haematopinus on the 7th day after administration.

In data set [4] the test system is swine nematode (nematodes in the digestive tract). As to the kind of experiment: Repelling swine nematode in naturally infected pigs (fecal egg count, McMaster's method). It is filed as in vivo. The following applies: 1% injection 0.2 mg/kg bw s.c.
Excerpt: as §1, §2, §3, §4
3) The negative conversion rates and egg reduction rates of the test pigs were calculated by a conventional method to assess the efficacy of repelling swine nematode.

Data set [5] deals with digestive tract nematodes. Put plainly: Repelling nematode in digestive track of sheep (fecal egg count). The data set is classed as in vivo.
Excerpt: as §1
Test animals and grouping: sheep grazed under the same condition were selected, and 80 sheep of 0.8-2.0 years old naturally infected with digestive tract nematodes were selected through fecal examination. The average weight of the test sheep was 30 kg. The 80 sheep were randomly divided into 4 groups, 20 heads for each group. The first group was the ivermectin control group, the second group was the tenvermectin A group, and the third group was the tenvermectin B group. All the medicated groups were injected subcutaneously in the neck according to 0.2 mg/kg·bw. The fourth group was a blank group and was not medicated.
1) The feces of the sheep in each group were collected and examined one by one a day before administration, and the worm eggs were counted by the McMaster's method, and the number of eggs per gram of feces (EPG) was counted.
2) On the 9th day after administration, the sheep of each group were subjected to a fecal examination by McMaster's method, and EPG was counted.
3) The egg negative conversion rates and egg reduction rates were calculated according to a conventional method to assess the efficacy.

For data set [6], the system named is Sarcoptes mites. As to the kind of experiment: Treatment of Sarcoptes mites of sheep (skin scrapings, live mites). The data set is classed as in vivo. The following applies: 1% injection 0.2 mg/kg bw s.c.; for Negative conversion number: sheep (10 per group); for Negative conversion rate (%): sheep. The text has this:
Test agents: 1% ivermectin injection, 1% tenvermectin A injection and 1% tenvermectin B injection as obtained in Example 1.
Test animals and grouping: sheep grazed under the same conditions were selected. Upon parasitological examination, 40 sheep which had been infected with sheep Sarcoptes mites were selected. The 40 sheep were randomly divided into 4 groups, 10 heads for each group. The first group was the ivermectin control group, the second group was the tenvermectin A group, and the third group was the tenvermectin B group. All the medicated groups were injected subcutaneously in the neck according to 0.2 mg/kg·bw. The fourth group was a blank group and was not medicated.
Test methods: the changes of clinical symptoms were observed. The skin of sheep was scratched using a surgical blade with glycerin at the junction of the affected part and the healthy skin of the diseased sheep until the skin slightly bled. The skin scraps were taken then were placed in a dish and brought back to the laboratory. Then the skin scraps were placed on a slide, a drop of aqueous solution of 50% glycerol was added, and a cover slip was covered, and then the skin scraps were checked under a low magnification microscope. It was confirmed to be positive if live Sarcoptes mites were observed. Samples were taken before administration and at 1, 2, 3 and 4 weeks after administration to be examined. The samples were examined under a microscope, based on whether live mites were observed, the samples can be determined to be positive as long as one live mite was observed. Changes of clinical symptoms were observed as references.

[7] abbreviates: allogynogenetic crucian carp, 0.5 ppm, 8 h.
Setting [8] is: allogynogenetic crucian carp, 1.0 ppm, 8 h.
The mark [9] stands for this setting: allogynogenetic crucian carp, 2.0 ppm, 8 h.
The mark [10] stands for this setting: sheep, 1% injection 0.2 mg/kg bw s.c., 9th day after administration.

For Milbemycin [reference compound], the “Survival condition (survival rates/%)” value in data set [1] (in vivo), in data set [2] (0.5 ppm), in data set [2] (1.0 ppm) and in data set [2] (1.5 ppm) was 0% throughout.

As to `CC[C@H](C)[C@H]1O[C@]2(C=C[C@@H]1C)C[C@@H]1C[C@@H](C/C=C(\C)[C@@H](O[C@H]3C[C@H](OC)[C@@H](O[C@H]4C[C@H](OC)[C@@H](O)[C@H](C)O4)[C@H](C)O3)[C@@H](C)/C=C/C=C3\CO[C@@H]4[C@H](O)C(C)=C[C@@H](C(=O)O1)[C@]34O)O2` [Avermectin, reference compound], the “Survival condition (survival rates/%)” value in data set [1] (setting [7]), in data set [1] (setting [8]), in data set [1] (setting [9]), in data set [2] (0.5 ppm), in data set [2] (1.0 ppm) and in data set [2] (1.5 ppm) was 0% each time.

`CC[C@H](C)C1O[C@]2(C=C[C@@H]1C)C[C@@H]1C[C@@H](C/C=C(\C)[C@@H](O[C@H]3C[C@H](OC)[C@@H](O[C@H]4C[C@H](OC)[C@H](NC)[C@H](C)O4)[C@H](C)O3)[C@@H](C)/C=C/C=C3\CO[C@@H]4[C@H](O)C(C)=C[C@@H](C(=O)O1)[C@]34O)O2.O=C(O)c1ccccc1` (some centres unmarked) [Methylamino avermectin benzoate, reference compound]: the “Survival condition (survival rates/%)” value in data set [1] (setting [7]), in data set [1] (setting [8]), in data set [1] (setting [9]), in data set [2] (0.5 ppm), in data set [2] (1.0 ppm) and in data set [2] (1.5 ppm) was 0% in each case.

Regarding Ivermectin [reference compound], the “Survival condition (survival rates/%)” value in data set [1] (setting [7]), in data set [1] (setting [8]), in data set [1] (setting [9]), in data set [2] (0.5 ppm), in data set [2] (1.0 ppm) and in data set [2] (1.5 ppm) was 0% throughout. Also, the “active Haematopinus observed on the body surface” value in data set [3] was “no active Haematopinus was found”. Besides, the “Egg reduction rate (%)” value was 76.2% in data set [4] (1st week after administration); 91.2% in data set [4] (2nd week after administration); 100% in data set [4] (3rd week after administration); 66.2% in data set [4] (4th week after administration); 100% in data set [5] (setting [10]). The “Negative conversion rate (%)” value in data set [4] (1st week after administration) stood at 70%; in data set [4] (2nd week after administration), 90%; in data set [4] (3rd week after administration), 80%; in data set [4] (4th week after administration), 60%; in data set [5] (setting [10]), 100%; in data set [6] (1st week), 70%. The “Negative conversion rate (%)” value in data set [6] (2nd week) is given as 90%; in data set [6] (3rd week), 100%; in data set [6] (4th week), 100%. For the same compound, the “Number of sheep negatively conversed” value in data set [5] (sheep (20 per group), 1% injection 0.2 mg/kg bw s.c., 9th day after administration) is given as 20. This compound also came in with an EPG after administration in data set [5] (sheep, eggs per gram of feces, 0.2 mg/kg bw s.c., 9th day after administration) of 0. In addition, the EPG before administration in data set [5] (sheep, eggs per gram of feces, baseline a day before administration) amounted to 9100. Also, the Negative conversion number in data set [6] (1st week) is given as 7; in data set [6] (2nd week), 9; in data set [6] (3rd week), 10; in data set [6] (4th week), 10.
